Details of data set [1]: species or system Rats (OFA, Sprague-Dawlay). The settings on record: rat, in vivo.
Method: The stick gum administered to Rats contains 5 mg of vegetal extract titrated at 25% of anthocyanosides (i.e. 1.250 μg of anthocyanosides).
The Sprague Dawley rat (10 Males) used extensively in medical research weighing 450-520 g were received and placed separately in cage in room temperature controlled (22° C.). […] Rats were maintained in dark periode condition and fed a diet (755 g/kg wheat starch, 150 g/kg casein, 50 g/kg peanut oil, 35 g/kg AlN-93M mineral mixture, 10 g/kg AlN-76A vitamin mixture) during 2 weeks (Felgines, C. et al. J. Nutr 2002).
The stick gum was deposited at the buccal mucosa area.
Peripheral blood was collected 1 hour post-administration, centrifuged and plasma was acidified through formic acid addition. After acidification, plasma samples were conserved at −80° C. and analyzed by LC-MS/MS (Liquid Chromatography—Mass Spectrometer/Mass Spectrometer).
In parallel, epithelium and conjunctive tissues were collected 45 minutes post-administration, placed in formic acid and eventually conserved at −80° C. Before LC-MS/MS analyze, tissues were washed in PBS (phosphate buffered saline) and homogenized on ice. Protein concentrations were determined by Lowry method. To facilitate tissues preparation, samples were homogenized and treated with 2.5% trypsin and 2% collagenase during 1.5 h at 37° C., and then acidified with formic acid. […]
Data set [2] is described as follows: Digestive versus sublingual absorption, plasmatic level 1 hour after administration. It counts as in vivo, Rats. The settings on record: for concentration at 1 h: rat, plasma, read-out: Plasmatic lutein concentration. The method, then:
Taurin and Lutein plasmatic level are evaluated using HPLC process as described Lallemand F. et al, 2004 and Shanmugam S, et al, 2011, respectively.

Read-outs that look alike come from different tables or passages of the source.

Turning to Anthocyanin, in data set [1], the “absorption in the tissues and in the plasma” value is “significantly absorbed”.
For `CC1=C[C@H](O)CC(C)(C)[C@H]1/C=C/C(C)=C/C=C/C(C)=C/C=C/C=C(C)/C=C/C=C(C)/C=C/C1=C(C)C[C@@H](O)CC1(C)C` [lutein, Lutein], in data set [2] (Example 5, rats), the “absorption, lingual way as compared to the digestive way” value was “more effective”. Also, the concentration at 1 h in data set [2] (oral, Digestive, 6 mg/kg) was 34 ng/mL; in data set [2] (oral, Digestive, 12 mg/kg), 32 ng/mL; in data set [2] (other: sublingual, Sublingual, 6 mg/kg), 120 ng/mL; in data set [2] (other: sublingual, Sublingual, 12 mg/kg), 160 ng/mL.

The record behind these values is patent US20130115174A1, “TRANSMUCOSAL COMPOSITION CONTAINING ANTHOCYANINS FOR ALLEVIATING A VISUAL DISCOMFORT” (priority 2010, published 2013).
